From patent publication US20150057226A1, “METHOD FOR TREATMENT OF LABOR ARREST” (DILAFOR AB, priority 2012, published 2015)
Positions of bridges follow the written chain, without caps; N, C: chain ends. Non-standard residues stand in square brackets, D forms with d. Residues, ends and D or L forms follow the SMILES beside them. Orn = NCCC[C@H](N)C(=O)O; Mpa = O=C(O)CCS

Columns and labels:
[1] = system: Human uterine smooth muscle cells; experiment: Intracellular Ca2+ with Fluo-4, live cell confocal imaging; format: cell-based
Experimental: Human uterine smooth muscle cells were established in a culture. Intracellular Ca^2+ was measured with the calcium indicator dye Fluo-4 and live cell imaging with confocal microscopy was established for the cells.
It was further investigated if the main transport mechanism of inositol-3 phosphate (IP3) stimulated Ca^2+ transport of the endoplasmatic reticulum. To study this pathway, 2-Aminoethoxydiphenyl borate (2-APB) was tested on Ca^2+ after 30 min of incubation with a concentration of 100 μM.
To further characterize the interaction between oxytocin and DF01 the effect of the oxytocin receptor antagonist Atosiban was used and the cells subjected to the DF01 enhanced oxytocin effect on Ca^2+ transport.

[2] = subcutaneous; species not stated; cited from earlier work

CCOc1ccc(C[C@H]2NC(=O)CCSSC[C@@H](C(=O)N3CCC[C@H]3C(=O)N[C@@H](CCCN)C(=O)NCC(N)=O)NC(=O)[C@H](CC(N)=O)NC(=O)[C@H]([C@@H](C)O)NC(=O)[C@H]([C@@H](C)CC)NC2=O)cc1 [Atosiban] ([Mpa][dY](Et)ITNCP[Orn]G-NH2; disulfide 1-6)
effect on oxytocin and oxytocin/DF01 effect on Ca2+ transport ([1]; 10^−6 M): clearly inhibited

heparin
corresponding bioavailability [2]: about 10%

NCCOB(c1ccccc1)c1ccccc1 [2-APB, 2-Aminoethoxydiphenyl borate]
effect on oxytocin and oxytocin/DF01 stimulated Ca2+-transport ([1]; 100 μM, after 30 min of incubation): decreased strongly

CC[C@H](C)[C@@H]1NC(=O)[C@H](Cc2ccc(O)cc2)NC(=O)[C@@H](N)CSSC[C@@H](C(=O)N2CCC[C@H]2C(=O)N[C@@H](CC(C)C)C(=O)NCC(N)=O)NC(=O)[C@H](CC(N)=O)NC(=O)[C@H](CCC(N)=O)NC1=O [oxytocin]
Ca2+-influx to the cytosol ([1]; cells treated with oxytocin): demonstrated | oxytocin concentration giving maximum effect on Ca2+-influx ([1]; dose-dependent effect): 0.05 IU/ml
